Patent US20210284622A1, “BIOACTIVE POLYMERS WITH ANTI=FOULING PROPERTIES FOR MEDICAL AND DENTAL USES” (OREGON HEALTH & SCIENCE UNIVERSITY, priority 2020, published 2021)

How the values were obtained:
Format in all cases: cell-based
S. mutans [1] = experiment: Minimum inhibitory concentration (MIC) against S. mutans, serial dilution, TH medium plus sucrose, 96 h; conditions: Streptococcus mutans, S. mutans in TH medium plus sucrose, 37° C. aerobically
Method: Methods: G43, and its non-binding counterpart, G43TEG (N-(2-carbamoyl-4-(2-(2-(2-(2-hydroxyethoxy)ethoxy)ethoxy)ethoxy)phenyl)-5-nitrobenzo[b]thiophene-2-carboxamide), were synthesized and minimum inhibitory concentration (MIC) against S. mutans was established. The compounds were serially diluted in DMSO to 400, 200, 100, 50, 25 and 12.5 then added to S. mutans grown in TH medium plus sucrose. Cultures were incubated for 96 h at 37° C. aerobically. Supernatants with planktonic cells and biofilms were assayed separately for metabolic activity using S. mutans carrying a renilla luciferase reporter. G43 or G43TEG were added at 4 wt % into 50:50 BisGMA/TEGDMA and 70 wt % filler. 0.2 wt % BAPO, 0.05 wt % BHT were used as the photoinitiator and inhibitor, respectively. Polymerization kinetics were assessed for 5 min by near-IR in discs (4 mm by 10 mm diameter), cured with a LED light source (700 mW/cm2, 30 s). Discs were then immersed in deionized H2O for 7 days, with extracted monomers collected every 24 h. Results were analyzed with one-way ANOVA/Tukey's test (α=0.05). […] Polymerizations of dental resins were relatively unaffected by 4% G43 or G43TEG (FIG. 1).

S. mutans [2] = experiment: Biofilm bacterial viability by metabolic activity, renilla luciferase reporter S. mutans; conditions: at MIC, FIG. 1
Source text: FIG. 2 represents S. mutans bacterial viability as measured using a metabolic activity via arenilla-reporter S. mutans(Merritt2016).
Methods: G43, and its non-binding counterpart, G43TEG (N-(2-carbamoyl-4-(2-(2-(2-(2-hydroxyethoxy)ethoxy)ethoxy)ethoxy)phenyl)-5-nitrobenzo[b]thiophene-2-carboxamide), were synthesized and minimum inhibitory concentration (MIC) against S. mutans was established. The compounds were serially diluted in DMSO to 400, 200, 100, 50, 25 and 12.5 then added to S. mutans grown in TH medium plus sucrose. Cultures were incubated for 96 h at 37° C. aerobically. Supernatants with planktonic cells and biofilms were assayed separately for metabolic activity using S. mutans carrying a renilla luciferase reporter. […] Polymerization kinetics were assessed for 5 min by near-IR in discs (4 mm by 10 mm diameter), cured with a LED light source (700 mW/cm2, 30 s). […] Results were analyzed with one-way ANOVA/Tukey's test (α=0.05). […]
Eight G43 derivatives (G43, G43TEG, G43-TEG-MMA, G43-A2-OMe, G43-A-NH2, G43B-Furan, G43-B1-OMe, G43-C3-OMe, and G16) were synthesized de novo screened against S. mutans for biofilm inhibition. […] Biofilms were stained with crystal violet (CV), washed 3× with DI H2O, and then the CV was volumetrically extracted to colorimetrically determine the quantity of biofilm. […] Results were analyzed with one-way ANOVA/Tukey's test (α=0.05).

S. mutans [3] = experiment: Biofilm quantification by crystal violet (CV) stain, Abs at 562 nm; conditions: 50 μM, FIGS. 3 & 4
Method: FIG. 3 Represents quantification of biofilms grown under different inoculants (50 μM) using crystal violet (CV) stain: (top) Biofilm morphology as visualized after CV stain, (chart) Colorimetrically quantified CV (Absat562 nm) to quantity the biofilm.
FIG. 4 represents quantification of biofilms grown under different inoculants (50 μM) using crystalviolet (CV) stain: (top) Biofilm morphology as visualized after CVstain, (chart) Colorimetrically quantified CV (Absat562 nm) to quantity the biofilm.
[…] G43 derivatives (G43, G43TEG, G43-TEG-MMA, G43-A2-OMe, G43-A-NH2, G43B-Furan, G43-B1-OMe, G43-C3-OMe, and G16) were synthesized de novo screened against S. mutans for biofilm inhibition. The compounds were dissolved in DMSO and serially diluted in H2O at 50 μM, then added to S. mutans cultures (TH medium with sucrose) & incubated for 96 h at 37° C. aerobically. Biofilms were assayed for bacterial viability (metabolic activity via a renilla-reporter S. mutans—Merritt2016). Biofilms were stained with crystal violet (CV), washed 3× with DI H2O, and then the CV was volumetrically extracted to colorimetrically determine the quantity of biofilm. Next, biofilms were washed 3× with DI H2O, then sterilized with EtOH, azeotropically dried. […] Results were analyzed with one-way ANOVA/Tukey's test (α=0.05).

GtfC mutants = experiment: Crystal violet biofilm quantification in four strains of S. mutans (Gtf mutants); conditions: FIG. 5
Method: FIG. 5 represents quantification of biofilms grown using four strains of S. mutans and colorimetrically quantified CV (Absat562 nm) to quantity the biofilm. Note that AGTF denotes which Gtf enzyme(s) are not expressed by the strain.
Eight G43 derivatives (G43, G43TEG, G43-TEG-MMA, G43-A2-OMe, G43-A-NH2, G43B-Furan, G43-B1-OMe, G43-C3-OMe, and G16) were synthesized de novo screened against S. mutans for biofilm inhibition. The compounds were dissolved in DMSO and serially diluted in H2O at 50 μM, then added to S. mutans cultures (TH medium with sucrose) & incubated for 96 h at 37° C. aerobically. Biofilms were assayed for bacterial viability (metabolic activity via a renilla-reporter S. mutans—Merritt2016). Biofilms were stained with crystal violet (CV), washed 3× with DI H2O, and then the CV was volumetrically extracted to colorimetrically determine the quantity of biofilm. Next, biofilms were washed 3× with DI H2O, then sterilized with EtOH, azeotropically dried. Insoluble biofilm was chemically digested by 1) methylation, 2) acid depolymerization, 3) reduction, and 4) acylation, resulting in methylated alditol acetates for polysaccharide connectivity determination by GC/MS. Results were analyzed with one-way ANOVA/Tukey's test (α=0.05).

NC(=O)c1ccccc1NC(=O)c1cc2cc([N+](=O)[O-])ccc2s1 [G43, N-(2-carbamoylphenyl)-5-nitrobenzo[b]thiophene-2-carboxamide]
MIC (S. mutans [1]): 25 to 50 µM
reduction of viable biofilm cells (S. mutans [2]): significant reduction
biofilm production (S. mutans [3]): significantly reduced
biofilm reduction in GtfC mutants (GtfC mutants): biofilm reduction efficacy

NC(=O)c1cc(OCCOCCOCCOCCO)ccc1NC(=O)c1cc2cc([N+](=O)[O-])ccc2s1 [G43TEG, N-(2-carbamoyl-4-(2-(2-(2-(2-hydroxyethoxy)ethoxy)ethoxy)ethoxy)phenyl)-5-nitrobenzo[b]thiophene-2-carboxamide]
MIC (S. mutans [1]): 25 to 50 µM
reduction of viable biofilm cells (S. mutans [2]): significant reduction
biofilm production (S. mutans [3]): significantly reduced
biofilm reduction in GtfC mutants (GtfC mutants): biofilm reduction efficacy
